Source: ChEMBL document CHEMBL1141740, “Studies on the Synthesis of Elegan-Type Linear Diterpenes: The Efficient Total Syntheses of Eleganolone, Eleganolone Acetate, Elegandiol, Eleganonal, and Epoxyeleganolone” (J Nat Prod, 1998)

Key:
Format in all cases: functional, tissue-based
Details in all cases: Cavia porcellus
Ileum [1] = assay: Relaxation activity in guinea pig ileum assessed as inhibition of acetylcholine-induced muscle contractions
Ileum [2] = assay: Relaxation activity in guinea pig ileum assessed as inhibition of histamine-induced muscle contractions
Ileum [3] = assay: Relaxation activity in guinea pig ileum assessed as relaxation of BaCl2-induced muscle contractions
Ileum [4] = assay: Relaxation activity in guinea pig ileum assessed as relaxation of KCl-induced muscle contractions

Structure (SMILES) | IC50 (Ileum [1]) [µM] | IC50 (Ileum [2]) [µM] | Activity (Ileum [3]) | IC50 (Ileum [3]) [µM] | Activity (Ileum [4]) | IC50 (Ileum [4]) [µM]
CC(C)=CC(=O)C/C(C)=C/CC/C(C)=C/CC/C(C)=C/CO [ELEGANOLONE] | 25.1 | 14.5 | Dose-dependent effect | 45.7 | Dose-dependent effect | 18.6
CC(=O)OC/C=C(\C)CC/C=C(\C)CC/C=C(\C)CC(=O)C=C(C)C [ELEGANOLONE ACETATE] | 19.5 | 6.61 | Dose-dependent effect | 45.7 | Dose-dependent effect | 33.9
